Experimental data reported in patent publication US20110256298A1, “BEER AND BEER-BASED BEVERAGES AND METHOD OF MODIFICATION OF POLYPHENOLS AND SILICON CONTENT IN THESE BEVERAGES” (priority 2009, published 2011).
≈ marks a conversion by molar mass, not a printed value.

Experiments:
[1] = Total amount of Silybum marianum polyphenols in bottled beer by HPLC; type: physicochemical; conditions: example 1 mixture dosed at 100 mg silymarin per liter; for Content in DIA beer: bottled DIA beer; for Content in PILS 12% beer: bottled PILS 12% beer; for Content in Non-alcoholic beer: bottled non-alcoholic beer
Protocol: The total amount of Silybum marianum polyphenols in beers was determined by HPLC in bottled beer as a sum of silymarin components.

physchem = type: physicochemical; conditions: for solubility thermodynamic: aqueous with cosolvent or surfactant or cyclodextrin, thermodynamic from solid
Source text: The equilibrium solubility of silymarin in two kinds of beer after the addition of the water-soluble mixture with the Silybum marianum polyphenols according to example 1 are shown in the following table: […]

Compound	Content in DIA beer [1]	Content in PILS 12% beer [1]	Content in Non-alcoholic beer [1]	equilibrium solubility in Lager Radegast Premium (physchem)	equilibrium solubility in Non-alcoholic Radegast Birell (physchem)	solubility thermodynamic (physchem; equilibrium solubility in Lager Radegast Premium)	solubility thermodynamic (physchem; equilibrium solubility in Non-alcoholic Radegast Birell)
COc1cc([C@H]2Oc3cc([C@H]4Oc5cc(O)cc(O)c5C(=O)[C@@H]4O)ccc3O[C@@H]2CO)ccc1O [Silybin A]	5.7 mg/L	15.1 mg/L	11.5 mg/L	43.03 µg/mL	38.22 µg/mL		
COc1cc([C@@H]2Oc3cc([C@H]4Oc5cc(O)cc(O)c5C(=O)[C@@H]4O)ccc3O[C@H]2CO)ccc1O [Silybin B]	15.4 mg/L	28.4 mg/L	29.4 mg/L	85.18 µg/mL	75.70 µg/mL		
COc1cc([C@@H]2Oc3c(O)cc([C@H]4Oc5cc(O)cc(O)c5C(=O)[C@@H]4O)cc3[C@H]2CO)ccc1O [Silychristin]	32.7 mg/L	42.1 mg/L	40.5 mg/L	187.51 µg/mL	176.46 µg/mL		
COc1cc([C@@H]2[C@H]3CO[C@@]4(O)C(=O)[C@@H]2C=C([C@H]2Oc5cc(O)cc(O)c5C(=O)[C@@H]2O)[C@@H]34)ccc1O [Silydianin]						66.1 µg/mL (≈ 137 µM)	61.7 µg/mL (≈ 128 µM)
Isosilybin A + B	20.9 mg/L	15.3 mg/L	12.5 mg/L	54.33 µg/mL	48.22 µg/mL		
silymarin				436.17 µg/mL	400.31 µg/mL		
